The source of these data is article PMC9103715, “New Panx-1 Blockers: Synthesis, Biological Evaluation and Molecular Dynamic Studies” (International Journal of Molecular Sciences, 2022).

One series has as its target T1, Panx-1 channels (Mus musculus, UniProt Q9JIP4).
T1 construct: expressed in transfected cells; host or cells: Xenopus laevis oocytes injected with in vitro-transcribed mRNA
Briefly: Voltage clamp on Xenopus laevis oocytes expressing Panx-1 channels. The series is classed as cell-based. To be noted: for inhibition at 50 µM / I (%) inhibition of Panx-1 currents: voltage clamp, Xenopus laevis oocytes expressing Panx-1 channels, 50 µM; for inhibition at 50 µM: read-out: I (%) inhibition of Panx-1 currents; for classification as active or inactive Panx-1 blocker: grouping chosen for the virtual screening. Here is the method: All new products were screened as Panx-1 blockers at the dose of 50 µM using the Voltage Clamp technique on Xenopus Laevis oocytes expressing Panx-1 channels. The membrane potential of the cells was held at -60 mV and voltage steps to +60 mV were applied to induce membrane currents. To verify that Panx-1 channels carried the currents, in each experiment 100 µM carbenoxolone (CBX) was applied. At this concentration, CBX is known to yield 100% inhibition of Panx-1 activity. If present, leak currents resistant to CBX were subtracted from the total current to assess % inhibition mediated by the tested compounds. Table 1 and Table 2 report the electrophysiological results of naphthalene-2-sulphonic acid derivatives bearing at position 5 an amino- (3a–e, 4 and 5) or amide group (7a–g, 8 and 9) and of compound 13.
Oocytes of Xenopus laevis are prepared as previously described in [39] where the oocytes are isolated from surgically removed ovary segments incubated in an Oocyte Ringe solution Ca2-free (OR2: in mM: 82.5 NaCl, 2.5 KCl, 1.0 MgCl2, […], 1.0 Na2HPO4 e 5.0 HEPES, pH 7.5) with 2 mg/mL of collagenase and antibiotics (10,000 U/mL penicillin and 10 mg/mL of streptomycin) stirred at room temperature for 3 h. After being washed with OR2, oocytes free of follicular cells and that have a uniform pigmentation are chosen and stored in OR2 for 18 °C.
Mouse pannexin1, in pCS2, was linearised with NotI. In vitro transcription was performed with the polymerase SP6, using the Message Machine kit (Ambion). mRNA was quantified by absorbance (260 nm), and the proportion of full-length transcripts was checked by agarose gel electrophoresis. In vitro-transcribed mRNA (~20 nL) was injected into Xenopus laevis oocytes.
Whole-cell membrane currents of oocytes were measured using a two-electrode voltage clamp (Gene Clamp 500B, Axon Instruments/Molecular Devices Sunnyvale, Union City, CA, USA). Glass pipettes were pulled using a P-97 Flaming/Brown type puller (Sutter, Novato, CA, USA). The recording chamber was perfused continuously with frog Ringer (OR) solution (in mM: 82.5 NaCl, 2.5 KCl, 1 CaCl2, 1 MgCl2, 1 Na2HPO4, and 5 HEPES, pH 7.5).
Membrane conductance was determined using voltage pulses, and the pulse-induced current amplitudes were divided by the amplitudes of the voltage steps. For calculation of % inhibition, leak currents were subtracted. Typically, leak currents after the interventions were smaller than at the beginning of the experiment and this smaller value was used for the subtraction to avoid overestimation of the inhibitory effect. For an independent measure of the leak current, oocytes at the end of the experiment were exposed to 100 µM carbenoxolone, which is known to close Panx1 channels 100%. Oocytes expressing Panx1 were held at −60 mV, and pulses to +60 mV were applied to transiently open the channels by means of the voltage gate. Pulses 5 s in duration were applied at 0.1 Hz for current and conductance measurements.

By inhibition is commonly meant the relative decrease from the control value, in per cent. Broadly, the melting point is the temperature of the solid-liquid transition.

T1 sequence (Q9JIP4 whole entry): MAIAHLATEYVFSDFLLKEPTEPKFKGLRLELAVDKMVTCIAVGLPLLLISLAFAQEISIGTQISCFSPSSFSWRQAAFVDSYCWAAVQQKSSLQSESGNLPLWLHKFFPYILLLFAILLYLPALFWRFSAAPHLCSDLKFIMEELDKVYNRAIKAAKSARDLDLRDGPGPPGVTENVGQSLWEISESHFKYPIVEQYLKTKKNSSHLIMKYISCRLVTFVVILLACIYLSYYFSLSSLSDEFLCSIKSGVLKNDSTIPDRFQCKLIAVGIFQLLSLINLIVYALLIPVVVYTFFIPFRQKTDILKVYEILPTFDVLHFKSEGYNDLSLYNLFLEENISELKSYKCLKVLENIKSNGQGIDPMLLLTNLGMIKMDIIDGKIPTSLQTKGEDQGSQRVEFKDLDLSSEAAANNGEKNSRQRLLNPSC

Compound `Nc1c(C(=O)O)cnn1-c1ccc(S(=O)(=O)NCCc2ccccc2)cc1` [Compound 28, 5-Amino-1-(4-(N-phenethylsulfamoyl)phenyl)-1H-pyrazole-4-carboxylic acid] displayed a melting point of 186 to 188 °C. Further, the inhibition at 50 µM on Panx-1 channels was determined as 22.7 ± 5.5%.
As to `O=C(Nc1cccc2cc(S(=O)(=O)O)ccc12)c1ccc(S(=O)(=O)N(CCc2ccccc2)CCc2ccccc2)cc1` (hydrate or solvate) [Compound 7e, 5-[4-(N,N-diphenethylsulfamoyl)benzamido]naphthalene-2-sulfonic acid], the melting point was over 300 °C.
For the compound `CCCCN(CCCC)S(=O)(=O)c1ccc(C(=O)Nc2cccc3cc(S(=O)(=O)O)ccc23)cc1` (hydrate or solvate) [Compound 7c, 5-[4-(N,N-dibutylsulfamoyl)benzamido]naphthalene-2-sulfonic acid], the melting point is over 300 °C.
Consider `Nc1c(C(=O)O)cnn1-c1ccc(S(=O)(=O)N(CCc2ccccc2)Cc2ccccc2)cc1` [Compound 30, 5-Amino-1-(4-(N-benzyl-N-phenethylsulfamoyl)phenyl)-1H-pyrazole-4-carboxylic acid], for which the melting point is 263 to 266 °C (dec.). The inhibition at 50 µM on Panx-1 channels stood at 30 ± 7.2%.
In the case of `O=S(=O)(O)c1ccc2c(NCCCCCc3ccccc3)cccc2c1` (hydrate or solvate) [Compound 3e, 5-[(5-Phenylpentyl)amino]naphthalene-2-sulfonic acid], the melting point is over 300 °C.
Same read-out and setting: the value for `O=S(=O)(O)c1ccc2c(NCCCc3ccccc3)cccc2c1` (hydrate or solvate) [Compound 3c, 5-[(3-Phenylpropyl)amino]naphthalene-2-sulfonic acid] was over 300 °C.
On to `O=C(Nc1cccc2cc(S(=O)(=O)O)ccc12)c1ccc(S(=O)(=O)N(CCc2ccccc2)CCc2ccccc2)cc1` [Compound 7e, 5-[4-(N,N-diphenethylsulfamoyl)benzamido]naphthalene-2-sulfonic acid], for which the inhibition at 50 µM at Panx-1 channels was determined as 58.3 ± 7.5%.
Still for that read-out and setting: under `CCN(CC)S(=O)(=O)c1ccc(C(=O)Nc2cccc3cc(S(=O)(=O)O)ccc23)cc1` [Compound 7a, 5-[4-(N,N-diethylsulfamoyl)benzamido]naphthalene-2-sulfonic acid] stands 54 ± 2.3%.
On to `CCCN(CCC)S(=O)(=O)c1ccc(C(=O)Nc2cccc3cc(S(=O)(=O)O)ccc23)cc1` [Compound 7b, 5-[4-(N,N-dipropylsulfamoyl)benzamido]naphthalene-2-sulfonic acid], for which, on Panx-1 channels, the “I (%) inhibition of Panx-1 currents” value amounted to 34.3 ± 5.2% and the inhibition at 50 µM stood at 34%.
For `COC(=O)c1ccc(CNc2cccc3cc(S(=O)(=O)O)ccc23)cc1` [Compound 3f, 5-[(4-(Methoxycarbonyl)benzyl)amino]naphthalene-2-sulfonic acid], the melting point was over 300 °C.
Regarding `O=S(=O)(O)c1ccc2c(NCc3ccccc3)cccc2c1` [Compound 3a, 5-(Benzylamino)naphthalene-2-Sulfonic Acid], on Panx-1 channels, the inhibition at 50 µM was 31.7 ± 0.9% and the “classification as active or inactive Panx-1 blocker” value is “inactive”.
On the same counts, the results for `O=C(Nc1cccc2cc(S(=O)(=O)O)ccc12)c1ccc(S(=O)(=O)NCCc2ccccc2)cc1` [Compound 7g, 5-[4-(N-phenethylsulfamoyl)benzamido]naphthalene-2-sulfonic acid] are 47.3 ± 6.5% and “inactive”.
Regarding `O=S(=O)(O)c1ccc2c(NCc3ccccc3)cccc2c1` (hydrate or solvate) [Compound 3a, 5-(Benzylamino)naphthalene-2-Sulfonic Acid], the melting point is over 300 °C.
Still for that read-out and setting: the value for `CCN(CC)S(=O)(=O)c1ccc(C(=O)Nc2cccc3cc(S(=O)(=O)O)ccc23)cc1` (hydrate or solvate) [Compound 7a, 5-[4-(N,N-diethylsulfamoyl)benzamido]naphthalene-2-sulfonic acid] was over 300 °C; that for `O=C(O)c1ccc(CNc2cccc3cc(S(=O)(=O)O)ccc23)cc1` (hydrate or solvate) [Compound 4, 4-[(6-Sulfonaphthalen-1-yl)aminomethyl]benzoic Acid] was over 300 °C.
For the compound `O=S(=O)(O)c1ccc2c(NCCCCCc3ccccc3)cccc2c1` [Compound 3e, 5-[(5-Phenylpentyl)amino]naphthalene-2-sulfonic acid], the inhibition at 50 µM on Panx-1 channels was 62 ± 6%.
Take `CCCCN(CCCC)S(=O)(=O)c1ccc(C(=O)Nc2cccc3cc(S(=O)(=O)[O-])ccc23)cc1.[Na+]` [Compound 9, Sodium 5-[4-(N,N-dibutylsulfamoyl)benzamido]naphthalene-2-sulfonate]: the “I (%) inhibition of Panx-1 currents” value on Panx-1 channels is recorded as 65.3 ± 3.9%.
The compound `CN(Cc1ccccc1)c1cccc2cc(S(=O)(=O)O)ccc12` (hydrate or solvate) [Compound 5, 5-(Benzyl(methyl)amino)naphthalene-2-sulfonic Acid] returned a melting point of over 300 °C.
In the case of `O=C(Nc1cccc2cc(S(=O)(=O)O)ccc12)c1ccc(S(=O)(=O)N(CCc2ccccc2)Cc2ccccc2)cc1` [Compound 7f, 5-[4-(N-benzyl-N-phenethylsulfamoyl)benzamido]naphthalene-2-sulfonic acid], the inhibition at 50 µM on Panx-1 channels worked out at 61.3 ± 4.3%.
`O=C(O)c1ccc(CN(Cc2ccc(C(=O)O)cc2)S(=O)(=O)c2ccc(C(=O)O)cc2)cc1` (hydrate or solvate) [Compound 13, 4,4′-{{[(4-Carboxyphenyl)sulfonyl]azanediyl}bis(methylene)}dibenzoic acid] gave a melting point of over 300 °C.
Consider `O=C(Nc1cccc2cc(S(=O)(=O)O)ccc12)c1ccccc1` [Compound 8, 5-Benzamidonaphthalene-2-sulfonic Acid], for which, on Panx-1 channels, the “I (%) inhibition of Panx-1 currents” value turned out to be 15.3 ± 4.9%, the inhibition at 50 µM amounted to 15% and the “classification as active or inactive Panx-1 blocker” value was “inactive”.
The compound `O=C(Nc1cccc2cc(S(=O)(=O)O)ccc12)c1ccc(S(=O)(=O)NCCc2ccccc2)cc1` (hydrate or solvate) [Compound 7g, 5-[4-(N-phenethylsulfamoyl)benzamido]naphthalene-2-sulfonic acid] had a melting point of over 300 °C.
`O=S(=O)(O)c1ccc2c(NCCc3ccccc3)cccc2c1` (hydrate or solvate) [Compound 3b, 5-(Phenethylamino)naphthalene-2-sulfonic acid] registered a melting point of over 300 °C.
On the same count and under the same terms, the value for `CCCN(CCC)S(=O)(=O)c1ccc(C(=O)Nc2cccc3cc(S(=O)(=O)O)ccc23)cc1` (hydrate or solvate) [Compound 7b, 5-[4-(N,N-dipropylsulfamoyl)benzamido]naphthalene-2-sulfonic acid] was over 300 °C.
Regarding `O=S(=O)(O)c1ccc2c(NCCc3ccccc3)cccc2c1` [Compound 3b, 5-(Phenethylamino)naphthalene-2-sulfonic acid], at Panx-1 channels, the inhibition at 50 µM is 24.3 ± 3.5%.
Still for that read-out and setting: the value for `CN(Cc1ccccc1)c1cccc2cc(S(=O)(=O)O)ccc12` [Compound 5, 5-(Benzyl(methyl)amino)naphthalene-2-sulfonic Acid] was 27.3 ± 2.6%; that for `O=S(=O)(O)c1ccc2c(NCCCCc3ccccc3)cccc2c1` [Compound 3d, 5-[(4-Phenylbutyl)amino]naphthalene-2-sulfonic acid] was 47 ± 5.7%.
As for `O=C(Nc1cccc2cc(S(=O)(=O)O)ccc12)c1ccc(S(=O)(=O)N(Cc2ccccc2)Cc2ccccc2)cc1` (hydrate or solvate) [Compound 7d, 5-[4-(N,N-dibenzylsulfamoyl)benzamido]naphthalene-2-sulfonic acid], the melting point was over 300 °C.
On the same count and under the same terms, the value for `O=S(=O)(O)c1ccc2c(NCCCCc3ccccc3)cccc2c1` (hydrate or solvate) [Compound 3d, 5-[(4-Phenylbutyl)amino]naphthalene-2-sulfonic acid] was over 300 °C.
Regarding `O=C(Nc1cccc2cc(S(=O)(=O)O)ccc12)c1ccc(S(=O)(=O)N(CCc2ccccc2)Cc2ccccc2)cc1` (hydrate or solvate) [Compound 7f, 5-[4-(N-benzyl-N-phenethylsulfamoyl)benzamido]naphthalene-2-sulfonic acid], the melting point is over 300 °C.
